{"source": "patent US20240325339A1", "about": "“MELATONIN AGONIST TREATMENT” (Vanda Pharmaceuticals Inc., priority 2006, published 2024)", "key": {"healthy volunteers [1]": {"test_system": "healthy volunteers", "assay": "Example 1 clinical trial, 5-hour advance in bedtime: dim light melatonin onset (DLMO) from plasma melatonin", "assay_type": "in vivo, human", "description": "(§1) A clinical trial was conducted to assess the safety of MA-1 as well as to determine the ability of MA-1 to shift the sleep/wake cycle following a 5-hour advance in bedtime. The study was a randomized, double-blind, parallel group, placebo-controlled study. It consisted of a 2-4-week outpatient screening period followed by an 8-day inpatient stay. After acclimating to the sleep lab, bedtime was advanced by 5 hours. The primary objectives of this study were to investigate the exposure-response to MA-1 on advancement of circadian release of endogenous melatonin rhythm as measured by dim light melatonin onset (DLMO, a biomarker of the sleep-wake cycle), to investigate the exposure-response to MA-1 on mean sleep efficiency parameters as measured by PSG, to investigate the exposure-response to MA-1 on objective neurobehavioral performance lapses during scheduled work-time as measured by computerized continuous performance testing, and to assess the safety and tolerability of MA-1. Forty-five healthy volunteers, men and women aged 18-50, were enrolled into this study. Thirty-nine subjects were randomized.\nThe study was designed to assess the safety and efficacy of four oral doses of MA-1 (10 mg, 20 mg, 50 mg and 100 mg) compared to matching placebo on circadian phase shift, sleep parameters during the major sleep episode, and subject alertness. After written informed consent was signed, subjects that met the inclusion/exclusion criteria at screening and baseline were enrolled into the 8-day in-patient portion of the study. All in-patient assessments were conducted in a time-isolation sleep lab in which no time cues were available to subjects. During the first three nights, subjects were given placebo 30 minutes prior to bedtime (11:00 PM) in a single-blind fashion. Baseline assessments for the efficacy parameters were measured during this period. At 5:00 PM on day 3, subjects started a 19 hour Pre-constant posture (CP) segment during which time the subjects remained seated in a semi-recumbent position and blood samples were collected approximately every hour from 7:00 AM to 12:00 PM. The purpose of the pre-CP segment is to provide a measure of each subject's circadian phase before the start of the night shift segment. On day 4, subjects were randomized to once daily treatment in one of the five treatment groups. In addition, subject sleep-wake routines were advanced 5 hours, such that subjects were required to sleep from approximately 6:00 PM-2:00 AM. […] Safety was assessed throughout the study, at the end of study (EOS) visit on day 8, and at the Follow-up visit. […]\nTo assess circadian sleep-wake cycles in the study, plasma melatonin levels were assessed. […] To assess the effects of MA-1 on the sleep-wake cycles, DLMO was monitored in subjects before and after treatment. […]"}, "healthy volunteers [2]": {"test_system": "healthy volunteers", "assay": "Example 1 clinical trial, 5-hour advance in bedtime: polysomnography (sleep efficiency, sleep latency, WASO, sleep architecture)", "settings": "human, in vivo", "description": "as §1, with “Thirty-nine subjects were randomized.” left out\nThe study was designed to assess the safety and efficacy of four oral doses of MA-1 (10 mg, 20 mg, 50 mg and 100 mg) compared to matching placebo on circadian phase shift, sleep parameters during the major sleep episode, and subject alertness. […] Baseline assessments for the efficacy parameters were measured during this period. […]"}, "[3]": {"assay": "Example 1 clinical trial: exposure (Cmax, AUC)", "assay_type": "in vivo, human", "description": "as §1\nThe differences in DLMO25% between the endpoint day (Nights 4, 5 and 6) and baseline (Night 3) were analyzed by comparing pairwise each dose group to placebo using a linear one-way analysis of variance (ANOVA) model using in SAS® (SAS® Institute, Cary, North Carolina). Means were calculated using the LS Means method in SAS®. Standard deviations were calculated using the Statistical Summary function in SAS®. Other statistical tests were also presented in graphics. These included: linear regression of response vs. exposure (dose, AUC, or Cmax), Kendall-tau nonparametric regression, and Spearman nonparametric regression."}, "[4]": {"test_system": "healthy male and female subjects with induced transient insomnia", "assay": "Example 2 study of single oral doses in induced transient insomnia: polysomnography", "assay_type": "in vivo, human", "description": "(§2) A multi-center, randomized, double-blind, placebo-controlled, parallel-group study was conducted to investigate the efficacy and safety of single oral doses of VEC-162 (20, 50, and 100 mg) and matching placebo in healthy male and female subjects with induced transient insomnia. Approximately four hundred subjects were randomized in approximately a 1:1:1:1 ratio to the treatment groups.\n(§3) In general, a screening period began 14 to 35 days prior to the start of the evaluation period, which was Day 1. Prior to Day 1, subjects were asked to increase their sleep time to 9 hours per night. Drug, or placebo, was administered on Night 1, approximately 0.5 hour prior to lights off.\nThe primary efficacy variable was LPS. LPS is defined as the length of time elapsed between lights off and onset of persistent sleep. In this trial, persistent sleep is defined as the point at which 10 minutes of uninterrupted sleep has begun. Sleep was determined on the basis of polysomnography (PSG).\nSecondary efficacy parameters included the following: • Wake After Sleep Onset (WASO): WASO is defined as the time spent awake between onset of sleep and Lights On during Night 1, determined by PSG. • Latency to Non-Awake (LNA): LNA is defined as the number of minutes to reach any stage of sleep. • Total Sleep Time (TST): TST is defined as the number of minutes spent asleep during the entire time in bed."}, "[5]": {"test_system": "healthy male and female subjects with induced transient insomnia", "assay": "Example 2 study: tolerability", "assay_type": "in vivo, human", "settings": "single oral doses 20, 50 and 100 mg", "description": "as §2, §3"}, "Solubility": {"assay": "Solubility", "assay_type": "physicochemical"}, "healthy volunteers [6]": {"test_system": "healthy volunteers", "settings": "cited from earlier work"}, "[7]": {"test_system": "elderly patients with primary insomnia", "settings": "28-day Phase II study; cited from earlier work"}, "[8]": {"settings": "50 mg; cited from earlier work"}, "[9]": {"test_system": "preclinical models of acute phase-shifting and chronic re-entrainment", "settings": "cited from earlier work"}, "MT1R melatonin receptor": {"molecular_target": "MT1R melatonin receptor (Homo sapiens, UniProt P48039)", "sequence (P48039 whole entry)": "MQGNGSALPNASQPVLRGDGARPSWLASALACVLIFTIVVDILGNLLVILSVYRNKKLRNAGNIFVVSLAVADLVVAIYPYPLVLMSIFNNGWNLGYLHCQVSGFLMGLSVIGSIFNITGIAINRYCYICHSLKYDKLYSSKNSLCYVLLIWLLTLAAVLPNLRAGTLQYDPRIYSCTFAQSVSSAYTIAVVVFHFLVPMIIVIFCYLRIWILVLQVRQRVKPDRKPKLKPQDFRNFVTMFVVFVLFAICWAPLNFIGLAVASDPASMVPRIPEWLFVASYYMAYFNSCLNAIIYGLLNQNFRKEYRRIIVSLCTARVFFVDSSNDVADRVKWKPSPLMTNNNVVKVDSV", "settings": "cited from earlier work"}, "MT2R melatonin receptor": {"molecular_target": "T1, MT2R melatonin receptor (Homo sapiens, UniProt P49286)", "T1 sequence (P49286 1-362)": "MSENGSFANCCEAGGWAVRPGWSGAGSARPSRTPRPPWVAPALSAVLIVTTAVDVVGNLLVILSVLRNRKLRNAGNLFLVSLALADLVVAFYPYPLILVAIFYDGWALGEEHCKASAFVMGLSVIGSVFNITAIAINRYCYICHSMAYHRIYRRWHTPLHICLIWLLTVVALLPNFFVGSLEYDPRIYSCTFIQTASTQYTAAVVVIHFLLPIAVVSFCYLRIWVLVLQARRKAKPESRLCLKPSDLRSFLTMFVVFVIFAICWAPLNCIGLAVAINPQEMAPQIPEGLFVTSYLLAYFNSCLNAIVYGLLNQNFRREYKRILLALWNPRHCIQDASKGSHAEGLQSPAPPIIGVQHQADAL", "settings": "cited from earlier work"}}, "note": "“Also recorded” adds a separate entry of the source."}
{"smiles": "CCC(=O)NC[C@@H]1C[C@H]1c1cccc2c1CCO2", "note": "[MA-1, (1R-trans)-N-[[2-(2,3-dihydro-4-benzofuranyl)cyclopropyl]methyl]propanamide]", "values": [{"measurement": "Change in DLMO25%, LOQ5 between Night 4 and Night 3", "setting": "healthy volunteers [1]; 10 mg oral, N = 8, mean", "result": 0.18, "unit": "h"}, {"measurement": "Change in DLMO25%, LOQ5 between Night 4 and Night 3", "setting": "healthy volunteers [1]; 20 mg oral, N = 7, mean", "result": -1.14, "unit": "h"}, {"measurement": "Change in DLMO25%, LOQ5 between Night 4 and Night 3", "setting": "healthy volunteers [1]; 50 mg oral, N = 4, mean", "result": -0.50, "unit": "h"}, {"measurement": "Change in DLMO25%, LOQ5 between Night 4 and Night 3", "setting": "healthy volunteers [1]; 100 mg oral, N = 5, mean ± SD", "result": "-2.74 ± 1.95", "unit": "h"}, {"measurement": "Percentage of time in each sleep stage between Night 4 and Night 2", "setting": "healthy volunteers [2]", "result": "did not change"}, {"measurement": "Exposure levels: effect of covariates", "setting": "[3]; human, in vivo", "result": "not affected by age, weight, height, gender, creatinine clearance, or ALT baseline levels"}, {"measurement": "AUC versus dose", "setting": "[3]; oral doses 10-100 mg", "result": "increased approximately proportional to dose"}, {"measurement": "Cmax versus dose", "setting": "[3]; oral doses 10-100 mg", "result": "increased in a manner approximately proportional to the dose"}, {"measurement": "Efficacy compared with 100 mg", "setting": "[4]; 20 mg single oral dose", "result": "comparable or superior to 100 mg"}, {"measurement": "Efficacy compared with 100 mg", "setting": "[4]; 50 mg single oral dose", "result": "more efficacious than 100 mg"}, {"measurement": "Tolerability", "setting": "[5]", "result": "well-tolerated at all doses"}, {"measurement": "Effect of pH on aqueous solubility", "setting": "Solubility", "result": "practically unaffected by pH"}, {"measurement": "Tolerability, multiple doses", "setting": "healthy volunteers [6]; multiple doses up to 150 mg, up to 28 days", "result": "safety and tolerability of MA-1 at doses up to 150 mg has been demonstrated; also recorded: well-tolerated"}, {"measurement": "Tolerability, single doses", "setting": "healthy volunteers [6]; single oral doses up to 300 mg, healthy volunteers", "result": "safe and well tolerated"}, {"measurement": "Sleep latency and number of nocturnal awakenings versus placebo", "setting": "[7]", "result": "did not differentiate from placebo"}, {"measurement": "Shift of circadian rhythms", "setting": "[8]", "result": "consistently shifted circadian rhythms"}, {"measurement": "Chronobiotic activity", "setting": "[9]", "result": "potent chronobiotic activity"}, {"measurement": "Agonist activity at MT1R", "setting": "MT1R melatonin receptor", "result": "specific and potent agonist"}, {"measurement": "Agonist activity at MT2R", "setting": "MT2R melatonin receptor", "result": "specific and potent agonist"}]}
